# Results as given in ChEMBL document CHEMBL5303304, “EUbOPEN Chemogenomics Library - IncuCyte” (2023).
# Columns and labels:
# Type in all cases: toxicity, cell-based
# [1] = tested on: HEK-293T; assay: Incucyte cell viability with HEK293T; details: human, 10 µM, compound concentration 10 uM
# [2] = tested on: Fibroblast; assay: Incucyte cell viability with human fibroblast; details: 10 µM, compound concentration 10 uM
# [3] = tested on: U2OS; assay: Incucyte cell viability with U2OS; details: human, 10 µM, compound concentration 10 uM
# Note: unitless GR value; below 1 slowed growth and below 0 cell loss.
Compound,"Growth Rate ([1]; 0 h, replicate number 1)","Growth Rate ([1]; 0 h, replicate number 2)","Growth Rate ([2]; 6 h, replicate number 1)","Growth Rate ([3]; 0 h, replicate number 1)","Growth Rate ([3]; 0 h, replicate number 2)","Growth Rate ([3]; 6 h, replicate number 1)","Growth Rate ([3]; 12 h, replicate number 1)","Growth Rate ([3]; 18 h, replicate number 1)","Growth Rate ([3]; 24 h, replicate number 1)","Growth Rate ([3]; 24 h, replicate number 2)","Growth Rate ([2]; 0 h, replicate number 2)","Growth Rate ([2]; 6 h, replicate number 2)","Growth Rate ([2]; 12 h, replicate number 1)","Growth Rate ([1]; 6 h, replicate number 1)","Growth Rate ([1]; 12 h, replicate number 1)","Growth Rate ([1]; 18 h, replicate number 1)","Growth Rate ([1]; 24 h, replicate number 1)","Growth Rate ([2]; 12 h, replicate number 2)","Growth Rate ([2]; 18 h, replicate number 2)","Growth Rate ([2]; 24 h, replicate number 2)",also measured
CC(=O)Nc1cccc(-n2c(=O)n(C3CC3)c(=O)c3c(Nc4ccc(I)cc4F)n(C)c(=O)c(C)c32)c1 [TRAMETINIB],0.04,-0.7,0.65,0.34,0.61,0.99,0.58,0.53,0.9,0.74,,,,,,,,,,,"Growth Rate ([1]; 6 h, replicate number 2): 0.92; Growth Rate ([1]; 12 h, replicate number 2): 0.78; Growth Rate ([3]; 6 h, replicate number 2): 0.66; Growth Rate ([3]; 12 h, replicate number 2): 0.91; Growth Rate ([3]; 18 h, replicate number 2): 0.85"
CN1CCN(c2ccc(Nc3ncc4cc5n(c4n3)C3(CCCCC3)CNC5=O)nc2)CC1 [TRILACICLIB],-0.98,,,0.26,,0.29,,0.92,0.84,0.98,,,,,,,,,,,"Growth Rate ([1]; 24 h, replicate number 2): 0.99; Growth Rate ([2]; 0 h, replicate number 1): -1"
O=C(O)c1cc(F)c2nc(N3[C@@H]4CC[C@H]3C[C@@H](OCc3c(-c5ccccc5OC(F)(F)F)noc3C3CC3)C4)sc2c1 [TROPIFEXOR],,0.6,,,,0.63,0.99,,,,0.33,0.98,0.31,,,,,,,,"Growth Rate ([2]; 18 h, replicate number 1): 0.63; Growth Rate ([2]; 24 h, replicate number 1): 0.97"
CC(C)C[C@H](NC(=O)[C@@H](O)[C@H](N)Cc1ccccc1)C(=O)O [UBENIMEX],0.14,,,0.42,,0.42,0.82,0.94,0.89,,-0.85,,,0.49,0.55,0.49,0.59,0.72,0.83,0.91,"Growth Rate ([1]; 18 h, replicate number 2): 0.98; Growth Rate ([1]; 24 h, replicate number 2): 0.92"
c1cnc2cc3c(cc2n1)[C@@H]1CNC[C@H]3C1 [VARENICLINE],,0.72,,0.97,,,0.98,0.91,0.92,0.9,,,,0.65,,,0.99,,,,"Growth Rate ([1]; 6 h, replicate number 2): 0.78; Growth Rate ([1]; 12 h, replicate number 2): 0.87; Growth Rate ([1]; 18 h, replicate number 2): 0.95; Growth Rate ([2]; 0 h, replicate number 1): 0.28; Growth Rate ([2]; 18 h, replicate number 1): -0.31; Growth Rate ([3]; 6 h, replicate number 2): 0.65; Growth Rate ([3]; 12 h, replicate number 2): 0.82; Growth Rate ([3]; 18 h, replicate number 2): 1"
CC1(C)CCC(CN2CCN(c3ccc(C(=O)NS(=O)(=O)c4ccc(NCC5CCOCC5)c([N+](=O)[O-])c4)c(Oc4cnc5[nH]ccc5c4)c3)CC2)=C(c2ccc(Cl)cc2)C1 [VENETOCLAX],,0.6,0.5,0.58,-0.65,0.5,0.81,0.78,0.81,0.93,-0.85,,0.87,0.01,0.58,0.66,0.87,,,,"Growth Rate ([3]; 6 h, replicate number 2): 0.98; Growth Rate ([3]; 12 h, replicate number 2): 0.51; Growth Rate ([3]; 18 h, replicate number 2): 0.89"
CCOC(=O)C1=C[C@]2(CC)CCCN3CCc4c(n1c1ccccc41)[C@@H]32 [VINPOCETINE],,0.71,0.56,-0.74,-0.97,,,,,0.79,,-0.97,-1,0.46,1,0.95,0.94,0.32,0.85,,"Growth Rate ([1]; 12 h, replicate number 2): 0.83; Growth Rate ([1]; 18 h, replicate number 2): 0.89; Growth Rate ([3]; 6 h, replicate number 2): 0.42; Growth Rate ([3]; 12 h, replicate number 2): 0.83; Growth Rate ([3]; 18 h, replicate number 2): 0.73"
CNC(=O)c1cccc(-c2ccc3c(N4CCOC[C@@H]4C)nc(N4CCOC[C@@H]4C)nc3n2)c1 [VISTUSERTIB],,,,0.02,,0.98,,0.93,0.56,,-0.6,,,-0.56,-0.41,-0.28,-0.18,0.26,0.18,0.33,"Growth Rate ([1]; 6 h, replicate number 2): -0.82; Growth Rate ([1]; 12 h, replicate number 2): -0.55; Growth Rate ([1]; 18 h, replicate number 2): -0.39; Growth Rate ([1]; 24 h, replicate number 2): -0.28; Growth Rate ([2]; 18 h, replicate number 1): 0.78; Growth Rate ([2]; 24 h, replicate number 1): 0.66"
COc1cccc(CNc2ccc(S(=O)(=O)Nc3nc4ccccc4s3)cc2)c1O [VLX-1005],0.18,,,,,0.62,0.89,,0.99,,,0.25,,,,0.96,,0.76,0.84,0.84,"Growth Rate ([2]; 24 h, replicate number 1): 1"
CN[C@@H](C)C(=O)N[C@H]1CN(C(=O)CC(C)C)CC[C@H]2CC[C@@H](C(=O)NC(c3ccccc3)c3ccccc3)N2C1=O [XEVINAPANT],0.08,,-0.46,,0.1,,,,,,0.68,0.35,0.68,0.36,0.86,0.71,0.92,0.73,0.78,0.88,"Growth Rate ([1]; 18 h, replicate number 2): 0.97; Growth Rate ([2]; 24 h, replicate number 1): 0.9"
Cc1cccc(F)c1C(=O)Nc1cnc(-c2cc3c(cc2Cl)OC(F)(F)O3)cn1 [ZEGOCRACTIN],,,,0.13,-0.79,0.26,0.45,0.72,0.8,0.92,-0.42,-0.57,-0.81,-0.06,0.19,0.24,0.34,0.2,0.4,0.26,"Growth Rate ([1]; 6 h, replicate number 2): -0.48; Growth Rate ([1]; 12 h, replicate number 2): -0.06; Growth Rate ([1]; 18 h, replicate number 2): 0.31; Growth Rate ([2]; 18 h, replicate number 1): 0.77; Growth Rate ([2]; 24 h, replicate number 1): 0.84; Growth Rate ([3]; 6 h, replicate number 2): 0.28; Growth Rate ([3]; 12 h, replicate number 2): 0.78; Growth Rate ([3]; 18 h, replicate number 2): 0.9"
Cn1c(=O)n(CCCO)c(=O)c2c1nc(Oc1cccc(OC(F)(F)F)c1)n2Cc1ccc(Cl)cc1 [ZERENCOTREP],0.5,0.33,-0.36,,-0.21,,0.8,0.88,0.94,,,-0.98,-1,0.54,0.92,0.98,,0.88,0.6,0.54,"Growth Rate ([1]; 6 h, replicate number 2): 0.64"
H-LVVYPWT-OH [SPINORPHIN],0.9,0.94,-0.34,0.44,-1,0.61,0.76,0.82,,0.92,-0.78,-0.61,-1,0.99,,,,0.52,0.87,0.94,"Growth Rate ([2]; 0 h, replicate number 1): -0.25; Growth Rate ([2]; 18 h, replicate number 1): 0.38; Growth Rate ([2]; 24 h, replicate number 1): 0.41; Growth Rate ([3]; 6 h, replicate number 2): 0.08; Growth Rate ([3]; 12 h, replicate number 2): 0.43; Growth Rate ([3]; 18 h, replicate number 2): 0.66"
